From publication PMC6114107, “Characterization and validation of Entamoeba histolytica pantothenate kinase as a novel anti-amebic drug target” (International Journal for Parasitology: Drugs and Drug …, 2018)
Read-outs that look alike come from different tables or passages of the source.

Assays:
[1] = target: E. histolytica PanK (EhPanK) recombinant enzyme (Entamoeba histolytica, UniProt B1N2P3); experiment: biochemical
Protocol: We screened 244 compounds from the Kitasato Natural Products Library for inhibition of EhPanK activity. Initially, each compound was dissolved in 50% DMSO and water at a final concentration of 1 mg/mL. Enzymatic reactions were carried out on a black 384-well microtiter plate with a 20 μL reaction mixture composed of 19 μl enzyme mix (100 μM pantothenate, 100 μM ATP, 50 ng of EhPanK recombinant enzyme in kinase buffer (see above) and 1 μl of the individual compounds (final concentration 50 μg/mL or 25–200 μM) at 37 °C for 2 h. After the kinase reaction, ADP was measured using ADP Hunter™ Plus kinase assay kit as described previously. Inhibition values were measured in triplicate.
Fig. S8. Dose-response data of inhibitors against EhPanK inhibitors. IC50 values were determined by dose-response-inhibition using GraphPad Prism (GraphPad Software Inc., San Diego, USA). Data are shown in mean of three replicates.

[2] = tested on: E. histolytica trophozoite (HM-1:IMSS cl6); experiment: Anti-amebic activity, trophozoite viability (WST-1, 48 h); format: cell-based, Entamoeba histolytica; details: HM-1:IMSS cl6 trophozoites, anaerobic, 35.5 °C, mean ± SEM
Protocol: Approximately 1 × 10^4 trophozoites of E. histolytica clonal strain HM-1:IMSS cl6 in 200 μl of BI-S-33 medium were dispensed into each well of a 96-well plate and incubated at 35.5 °C for 2 h. Medium was then removed and replaced with 200 μl of BI-S-33 medium that contained various concentrations of each compound. […] The plate was incubated under anaerobic conditions at 35.5 °C for 48 h. After the medium was removed, 100 μl of pre-warmed Opti-MEM I (Life Technologies, Grand Islands, NY, USA) containing one-tenth volume of WST-1 (Roche, Mannheim, Germany) was added. The viability of trophozoites was estimated by measuring absorbance at 450 nm by SpectraMax® Paradigm® (Molecular Devices, CA, USA). Metronidazole was used as positive control at final concentrations of 0.1–10 μM and 0.5% DMSO as negative control. Each assay was performed in triplicate. IC50 values were calculated by least squares curve fitting of the dose inhibition curves using GraphPad Prism (GraphPad Software Inc., San Diego, USA).

[3] = tested on: MRC-5 cells (human fibroblast); experiment: Cytotoxicity against MRC-5 cells (WST-8, 48 h); format: cell-based; details: MRC5, MRC-5, 48 h, mean ± SEM, read-out: IC50 Normal human cell (MRC-5)
Protocol: Human fibroblast cells, MRC-5, were cultured on 96-well flat bottom plates at a density of 1.5 × 10^4 cells/well with 100 μl of MEM medium (Life Technologie) containing 10% fetal bovine serum (Hana-nesco Bio, Tokyo, Japan) and 1% penicillin-streptomycin (Life Technologies). Cells were incubated at 37 °C with 5% CO2 for 48 h. Approximately 100 μl of MEM medium containing 5 μl of each compound dissolved in 50% DMSO in water were added to each well. After the plates were incubated for 48 h, approximately 10 μl of WST-8 (Dojindo, Kumamoto, Japan) was added to each well and the plate was incubated at 37 °C with 5% CO2 for 2 h. The absorbance was measured at 450 nm by spectrophotometer (SH-9000Lab, Corona Electric, Ibaraki, Japan). Growth of MRC-5 cells was measured in duplicate. Staurosporine (Kitasato Natural Products Library) was used as a positive (cytotoxic) control in a concentration range of 0.5 pM to 0.1 nM IC50 values were calculated as described previously.

[4] = target: T1, E. histolytica pantothenate kinase (Entamoeba histolytica, UniProt B1N2P3); experiment: Phosphoryl donor specificity of EhPanK; format: biochemical; details: donor 100 μM, 0.2 mM pantothenate, 10 mM MgCl2, 37 °C, pH 6; relative to ATP; ND = not detected
From the text: EhPanK utilized various nucleoside triphosphates, ATP, CTP, GTP, UTP, dATP, and polyphosphates, as well as deoxynucleotides as phosphoryl donors, with ATP being the best phosphate donor (Table 2).

recombinant EhPanK = experiment: Regulation of EhPanK by CoA, acetyl CoA and malonyl CoA (double-reciprocal plots); format: biochemical, Entamoeba histolytica; details: inhibitor 0, 0.5, 2 mM; for Mechanism of inhibition with respect to ATP: various ATP, 0.2 mM pantothenate; for Mechanism of inhibition with respect to pantothenate: various pantothenate, 100 μM ATP
From the text: PanK from other organisms was reported to be negatively regulated by allosteric inhibition with CoA, acetyl CoA, and malonyl CoA ([Calder et al., 1999]; [Takagi et al., 2010]; [Vallari et al., 1987]). […] The mechanisms of inhibition by acetyl CoA were not clear but seemed to be the mixed type with respect to ATP and pantothenate (Fig. 3).
Fig. 2 Effect of CoA, acetyl CoA, and malonyl CoA on the pantothenate kinase activities. Relative activities of EhPanK in the presence of various concentrations of inhibitors to those without inhibitors are shown. […] The assays were carried out three times independently, and the results are shown as means ± SEM of triplicates.
Fig. 3 Double-reciprocal plots of the recombinant EhPanK in the presence of CoA (A and B), malonyl CoA (C and D), or acetyl CoA (E and F). The enzymatic activities were determined with various concentrations of ATP and 0.2 mM pantothenate (A, C, and E) or various concentrations of pantothenate and 100 μM ATP (B, D, and F), in the presence of three concentrations of inhibitors (0, 0.5, and 2 mM). Data are shown in means ± SEM of triplicate analyses.

[5] = target: T1, E. histolytica pantothenate kinase; format: biochemical
[6] = recombinant EhPanK, 100 μM pantothenate, 100 μM ATP, 37 °C, 2 h, mean ± SEM of three replicates, read-out: IC50 against EhPanK activity
[7] = cation 5 mM, 0.2 mM pantothenate, 37 °C, pH 6.0, relative to MgCl2, ND = not detected

T1 sequence (B1N2P3 entry or part of it): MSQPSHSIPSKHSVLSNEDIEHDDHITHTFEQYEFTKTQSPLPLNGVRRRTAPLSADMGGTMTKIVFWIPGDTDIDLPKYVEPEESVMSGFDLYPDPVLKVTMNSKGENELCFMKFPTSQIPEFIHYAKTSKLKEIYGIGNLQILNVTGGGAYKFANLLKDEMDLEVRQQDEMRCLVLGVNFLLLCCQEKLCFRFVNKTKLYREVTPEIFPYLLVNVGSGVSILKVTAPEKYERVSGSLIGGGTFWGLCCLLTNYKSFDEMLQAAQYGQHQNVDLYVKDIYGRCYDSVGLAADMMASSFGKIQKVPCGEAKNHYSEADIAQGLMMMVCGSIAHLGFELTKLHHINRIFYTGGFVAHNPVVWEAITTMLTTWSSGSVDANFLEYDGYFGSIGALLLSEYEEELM
E. histolytica PanK (EhPanK) recombinant enzyme, sequence (B1N2P3 entry or part of it): as above

Molecule	IC50 [1, 6] [µM]	IC50 ([2]; Entamoeba histolytica) [µM]	IC50 [3] [µM]	other results
[H]/N=C(/N)N[C@H]1[C@H](O)[C@@H](O)[C@H](O[C@@H]2O[C@@H](C)[C@](O)(C=O)[C@H]2O[C@@H]2O[C@@H](CO)[C@H](O)[C@@H](O)[C@@H]2NC)[C@@H](N/C(N)=N\[H])[C@@H]1O [Streptomycin]	155 ± 10.1	77.5 ± 1.52	> 172	–
Nc1nc2c(ncn2[C@@H]2O[C@H](COP(=O)(O)OP(=O)(O)OP(=O)(O)O)[C@@H](O)[C@H]2O)c(=O)[nH]1 [GTP]	–	–	–	Relative activity (phosphoryl donor) [4]: 78.8 ± 4.9%
CC(=O)SCCNC(=O)CCNC(=O)[C@H](O)C(C)(C)COP(=O)(O)OP(=O)(O)OC[C@H]1O[C@@H](n2cnc3c(N)ncnc32)[C@H](O)[C@@H]1OP(=O)(O)O [acetyl CoA]	–	–	–	Mechanism of inhibition with respect to ATP (recombinant EhPanK): mixed type; Mechanism of inhibition with respect to pantothenate (recombinant EhPanK): mixed type
CC(/C=C/C(=O)NO)=C\[C@@H](C)C(=O)c1ccc(N(C)C)cc1 [Trichostatin]	310 ± 14.9	–	2.62 ± 0.49	–
CC(C)(COP(=O)(O)OP(=O)(O)OC[C@H]1O[C@@H](n2cnc3c(N)ncnc32)[C@H](O)[C@@H]1OP(=O)(O)O)[C@@H](O)C(=O)NCCC(=O)NCCSC(=O)CC(=O)O [malonyl CoA]	–	–	–	Mechanism of inhibition with respect to ATP (recombinant EhPanK): competitive; Mechanism of inhibition with respect to pantothenate (recombinant EhPanK): non-competitive
Nc1ccn([C@@H]2O[C@H](COP(=O)(O)OP(=O)(O)OP(=O)(O)O)[C@@H](O)[C@H]2O)c(=O)n1 [CTP]	–	–	–	Relative activity (phosphoryl donor) [4]: 1.4 ± 0.2%
CS[C@H]1SC[C@H]2C(=O)N(C)[C@@H](C(C)C)C(=O)OC[C@@H](NC(=O)c3cnc4ccccc4n3)C(=O)N[C@@H](C)C(=O)N(C)[C@@H]1C(=O)N(C)[C@@H](C(C)C)C(=O)OC[C@@H](NC(=O)c1cnc3ccccc3n1)C(=O)N[C@@H](C)C(=O)N2C [Echinomycin]	77.8 ± 4.4	–	< 0.38	–
[Cl][Mn][Cl] [MnCl2]	–	–	–	Relative activity (metal) [5, 7]: 83.2 ± 2.0%
O=c1ccn([C@@H]2O[C@H](COP(=O)(O)OP(=O)(O)OP(=O)(O)O)[C@@H](O)[C@H]2O)c(=O)[nH]1 [UTP]	–	–	–	Relative activity (phosphoryl donor) [4]: 16.6 ± 1.2%
CC(/C=C/C(O)=C1/C(=O)CNC1=O)=C\C(C)C1OC2(C)OC(C(=O)C3OC32C)C1C (stereo not shown) [Tirandamycin A]	229 ± 3.4	< 20	144 ± 3.8	IC50 [2]: 13.7 ± 4.85 µM
[Ca+2].[Cl-].[Cl-] [CaCl2]	–	–	–	Relative activity (metal) [5, 7]: 17.0 ± 3.0%
COc1cccc2c1C(=O)C1=C(C[C@@H](CC(=O)O)O[C@@H]1C)C2=O [O-methylnanaomycin A]	284 ± 28.7	–	19 ± 0.49	–
Cc1ncc([N+](=O)[O-])n1CCO [Metronidazole]	–	0.66 ± 0.05	> 100	–
NC[C@@H]1O[C@H](O[C@H]2[C@@H](O)[C@H](O[C@@H]3[C@@H](O)[C@H](N)C[C@H](N)[C@H]3O[C@H]3O[C@H](CN)[C@@H](O)[C@H](O)[C@H]3N)O[C@@H]2CO)[C@H](N)[C@@H](O)[C@@H]1O [Neomycin]	147 ± 6.8	< 20	> 163	IC50 [2]: 10.6 ± 1.12 µM
CC(=O)[C@H]1O[C@@H](Oc2ccc(/C=C(\C)C(=O)N[C@@H]3[C@H](O)[C@@H](O)[C@H]4OCO[C@H]4[C@@H]3O)cc2O)[C@@H](O)[C@@H]1O [Hygromycin A]	194 ± 17.8	142 ± 16.3	> 196	–
[Cl-].[Cl-].[Zn+2] [ZnCl2]	–	–	–	Relative activity (metal) [5, 7]: 3.9 ± 0.7%

Molecule	IC50 [1, 6] [µM]	IC50 ([2]; Entamoeba histolytica) [µM]	IC50 [3] [µM]	other results
[Cl][Fe][Cl] [FeCl2]	–	–	–	Relative activity (metal) [5, 7]: 72.8 ± 1.7%
[Cl][Cu][Cl] [CuCl2]	–	–	–	Relative activity (metal) [5, 7]: 84.3 ± 4.7%
C[C@H]1O[C@H](O[C@H]2[C@H](O)[C@@H](O)[C@@H](O)[C@H](O)[C@@H]2O)[C@@H](N)C[C@@H]1NC(=N)C(=O)O [Kasugamycin]	–	66.2 ± 13.7	87.1 ± 7.22	IC50 [1]: 254 ± 4.7 µM
Cc1cn([C@H]2C[C@H](O)[C@@H](COP(=O)(O)OP(=O)(O)OP(=O)(O)O)O2)c(=O)[nH]c1=O [TTP]	–	–	–	Relative activity (phosphoryl donor) [4]: 5.4 ± 1.9%
O=C(Cc1cccs1)N[C@@H]1C(=O)N2C(C(=O)[O-])=C(C[n+]3ccccc3)CS[C@H]12 [Cephaloridine]	230 ± 10.1	246 ± 34.9	48.2 ± 3.61	–
Nc1ncnc2c1ncn2[C@H]1C[C@H](O)[C@@H](COP(=O)(O)OP(=O)(O)OP(=O)(O)O)O1 [dATP]	–	–	–	Relative activity (phosphoryl donor) [4]: 19.3 ± 4.3%
Nc1ncnc2c1ncn2[C@@H]1O[C@H](COP(=O)(O)OP(=O)(O)OP(=O)(O)O)[C@@H](O)[C@H]1O [ATP]	–	–	–	Relative activity (phosphoryl donor) [4]: 100.0 ± 4.1%
[Cl-].[Cl-].[Co+2] [CoCl2]	–	–	–	Relative activity (metal) ([5]; pH 6): 74.2 ± 6.1%
[Cl-].[Cl-].[Mg+2] [MgCl2]	–	–	–	Relative activity (metal) [5, 7]: 100.0 ± 0.0%
LiCl2	–	–	–	Relative activity (metal) [5, 7]: 34.5 ± 1.8%
O=P(O)(O)OP(=O)(O)OP(=O)(O)O [Tripolyphosphate]	–	–	–	Relative activity (phosphoryl donor) [4]: 16.9 ± 0.8%
O=C1OC2(OC=C(c3ccccc3)C2=O)c2ccccc21 (stereo not shown) [Fluorescamine]	–	168 ± 20.1	288 ± 17.8	IC50 ([1]; read-out: IC50 against EhPanK activity): 346 ± 14.7 µM
CCC1OC(=O)CC(O)C(C)C(O[C@@H]2O[C@H](C)C[C@H](N(C)C)[C@H]2O)C(CC=O)CC(C)C(=O)/C=C/C2(C)OC2C1C (stereo partly shown) [Rosamycin]	166 ± 2	56.3 ± 11.7	34.4 ± 2.71	–
CCCCC/C=C\CCC(=O)N[C@H]1[C@H](Oc2c3cc4cc2Oc2ccc(cc2Cl)[C@@H](O[C@@H]2O[C@H](CO)[C@@H](O)[C@H](O)[C@H]2NC(C)=O)[C@@H]2NC(=O)[C@H](NC(=O)[C@@H]4NC(=O)[C@H]4NC(=O)[C@@H](Cc5ccc(c(Cl)c5)O3)NC(=O)[C@H](N)c3ccc(O)c(c3)Oc3cc(O)cc4c3)c3ccc(O)c(c3)-c3c(O[C@H]4O[C@H](CO)[C@@H](O)[C@H](O)[C@@H]4O)cc(O)cc3[C@@H](C(=O)O)NC2=O)O[C@H](CO)[C@@H](O)[C@@H]1O [Teicoplanin]	–	–	–	IC50 ([1]; read-out: IC50 against EhPanK activity, recombinant EhPanK, 100 μM pantothenate, 100 μM ATP, 37 °C, 2 h, mean ± SEM of three replicates): 26.3 ± 2.6 µM
Polyphosphate	–	–	–	Relative activity (phosphoryl donor) [4]: 16.2 ± 2.5%
CC[C@H]1OC(=O)[C@H](C)[C@@H](O[C@H]2C[C@@](C)(OC)[C@@H](O)[C@H](C)O2)[C@H](C)[C@@H](O[C@@H]2O[C@H](C)C[C@H](N(C)C)[C@H]2O)[C@](C)(O)C[C@@H](C)C(=O)[C@H](C)[C@@H](O)[C@]1(C)O [Erythromycin A]	131 ± 6	156 ± 20.6	> 136	–
